Experimental findings from US8524227B2, “Anti-IL-TIF antibodies” (ZymoGenetics, Inc., priority 2002, dated 2013) are described below.

The nature of test [1]: DSS-induced colitis mouse model. In kind it is in vivo, mice. Particulars: for histopathology screening score: 4% DSS in drinking water. An excerpt:
Colitis was induced by DSS ingestion in Swiss Webster female mice from Charles River Laboratories. The mice were 10 and 11 weeks old at the start of the study. Mice were given 4% DSS in the drinking water for a period of 6 days (treated mice), or were given only normal drinking water (control mice). A Disease Activity Index clinical score (DAI) was used, which comprises a combination of measurements including stool quality, occult blood and weight loss. DAI was obtained daily for each mouse beginning one day after DSS treatment. After 6 days, DSS was removed from the drinking water of the treated mice. All mice were monitored by DAI clinical score until sacrifice at either 2, 7 or 10 days from the start of the study. On each of days 2 and 7, four DSS-treated mice and one control mouse were sacrificed. On day 10, four DSS-treated mice and two control mice were sacrificed. For all animals after sacrifice, the colon length was measured. Colon sections were fixed in 10% neutral buffered formalin for histologic analysis or frozen for mRNA extraction.
Histologic index scores were obtained following the method in reference 1. Generally, the colon sections were scored blinded by a pathologist for crypt scores, hyperplastic epithelium, crypt distortion and inflammation.
Daily, each mouse was graded as to a clinical score based on weight loss, stool consistence and intestinal bleeding. Higher scores were assigned for increasing amounts of weight loss, diarrhea and bleeding. The daily score for each mouse was the mean grade obtained from the three results/observations.

The next test concerns the target T1, IL-TIF (Homo sapiens, UniProt Q9GZX6).
T1 sequence (Q9GZX6 13-179 limits assumed): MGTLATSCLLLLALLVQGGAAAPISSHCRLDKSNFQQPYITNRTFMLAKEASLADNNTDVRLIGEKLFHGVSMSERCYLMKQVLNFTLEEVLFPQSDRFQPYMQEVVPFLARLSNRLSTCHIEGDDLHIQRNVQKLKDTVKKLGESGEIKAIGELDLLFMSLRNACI
Description: Inhibition of IL-TIF-induced proliferation of BaF3/CRF2-4/zcytor11 cells by soluble receptors. In kind it is cell-based. Conditions: 100 pg/ml IL-TIF. As to the method:
BaF3/CRF2-4/zcytor11 cells described herein were spun down and washed in PBS 2 times to ensure the removal of the mIL-3, and then spun a third time and re-suspended in the complete media (RPMI 1640, 10% FBS, 1% GlutaMAX, 1% Sodium Pyruvate), but without mIL-3 (hereinafter referred to as “mIL-3 free media”). Cells were then counted in a hemocytometer. Cells were plated in a 96-well format at 5000 cells per well in a volume of 100 μl per well using the mIL-3 free media.
IL-TIF protein (SEQ ID NO:3) was diluted to 200 pg/ml in mIL-3 free media. Zcytor16-Fc4 fusion protein (described herein) was diluted to 1 μg/ml in the mIL-3 free/IL-TIF media on the top row of the plate, and then diluted serially 1:2 down the remaining 7 rows on the 96-well plate, leaving a volume of 100 μl in each well. This was then added to the 100 μl of cells, for a final IL-TIF concentration of 100 pg/ml in all wells, and final Zcytor16-Fc4 concentrations of approximately […], 0.016, and 0.008 μg/ml in a total assay volume of 200 μl. CRF2-4/zcytor11-Fc4 was diluted to 8 μg/ml in the mIL-3 free/IL-TIF media on the top row of the plate, and then diluted serially 1:2 down the remaining 7 rows on the 96-well plate, leaving a volume of 100 μl in each well. This was then added to the 100 μl of cells, for a final IL-TIF concentration of 100 pg/ml in all wells, and final CRF2-4/zcytor11-Fc4 concentrations of approximately […], 0.25, 0.125 and 0.063 μg/ml, in a total assay volume of 200 The assay plates were incubated at 37° C., 5% CO2 for 4 days at which time Alamar Blue (Accumed, Chicago, Ill.) was added at […]. Plates were again incubated at 37° C., 5% CO2 for 16 hours. Alamar Blue gives a fluourometric readout based on number of live cells, and is thus a direct measurement of cell proliferation in comparison to a negative control. Plates were read on the Wallac Victor 2 1420 Multilabel Counter (Wallac, Turku, Finland) at wavelengths 530 (Excitation) and 590 (Emmssion). […] IL-TIF alone stimulated the cells 13-fold over background.

dextran sulfate sodium [DSS]: the histopathology screening score was found to be 8.8 in test [1] (day 2), 21 in test [1] (day 7) and 18 in test [1] (day 10). In addition, the “colon lengths vs non-treated controls” value in test [1] (days 7 and 10) is recorded as “somewhat shorter”.

B1: CRF2-4/zcytor11-Fc4: secreted heterodimer of extracellular domains of hzcytor11 and CRF2-4, each fused to Fc4 (protein)
chain 1: HAPEDPSDLLQHVKFQSSNFENILTWDSGPEGTPDTVYSIEYKTYGERDWVAKKGCQRITRKSCNLTVETGNLTELYYARVTAVSAGGRSATKMTDRFSSLQHTTLKPPDVTCISKVRSIQMIVHPTPTPIRAGDGHRLTLEDIFHDLFYHLELQVNRTYQMHLGGKQREYEFFGLTPDTEFLGTIMICVPTWAKESAPYMCRVKTLPDRTWTGSGSGSGSEPRSSDKTHTCPPCPAPEAEGAPSVFLFPPKPKDTLMISRTPEVTCVVVDVSHEDPEVKFNWYVDGVEVHNAKTKPREEQYNSTYRVVSVLTVLHQDWLNGKEYKCKVSNKALPSSIEKTISKAKGQPREPQVYTLPPSRDELTKNQVSLTCLVKGFYPSDIAVEWESNGQPENNYKTTPPVLDSDGSFFLYSKLTVDKSRWQQGNVFSCSVMHEALHNHYTQKSLSLSPGKLVPRGSGSGGEYMPME
chain 2: MVPPPENVRMNSVNFKNILQWESPAFAKGNLTFTAQYLSYRIFQDKCMNTTLTECDFSSLSKYGDHTLRVRAEFADEHSDWVNITFCPVDDTIIGPPGMQVEVLDDSLHMRFLAPKIENEYETWTMKNVYNSWTYNVQYWKNGTDEKFQITPQYDFEVLRNLEPWTTYCVQVRGFLPDRNKAGEWSEPVCEQTTHDETVPSGSGSGSGSEPRSSDKTHTCPPCPAPEAEGAPSVFLFPPKPKDTLMISRTPEVTCVVVDVSHEDPEVKFNWYVDGVEVHNAKTKPREEQYNSTYRVVSVLTVLHQDWLNGKEYKCKVSNKALPSSIEKTISKAKGQPREPQVYTLPPSRDELTKNQVSLTCLVKGFYPSDIAVEWESNGQPENNYKTTPPVLDSDGSFFLYSKLTVDKSRWQQGNVFSCSVMHEALHNHYTQKSLSLSPGKGSGGHHHHHH
modifications: left off: small tags and cut ends
notes: secreted heterodimer of extracellular domains of hzcytor11 and CRF2-4, each fused to Fc4
Regarding B1, in the test with IL-TIF, the “concentrations completely inhibiting proliferation” value was found to be 8 µg/mL, the “concentrations partially inhibiting proliferation” value fell in the range of 0.125 to 4 µg/mL and the “inhibition of the proliferative effect of IL-TIF” value was “much weaker inhibition”. Besides, the “inhibition at lowest concentration” value with IL-TIF (63 ng/ml) was “barely detectable”.
